Test results as given in patent US20230234941A1, “Salts of Compound and Pharmaceutical Compositions Containing the Same” (Shenzhen Forward Pharmaceuticals Co., Limited., priority 2020, published 2023).
≈ marks a conversion by molar mass, not a printed value.

Tests used:
Assay type in all cases: physicochemical
[1] = Solid storage stability test; conditions: for Original morphology / Original purity: original solid before storage; for chemical and physical stability after storage (summary): solid/25° C./60% RH/open/1 week and/or solid/60° C./closed container/1 week
Description: Each amorphous salt solid was weighed (two 2 mg samples were weighed for purity testing after solid storage stability study, and one 10 mg sample was weighed for XRPD testing after solid storage stability study) and placed in a glass vial. In a 25° C./60% RH solid storage stability test, the amorphous salt solid was placed in a 25° C./60% RH constant temperature and humidity chamber, and placed in the dark for 1 week (i.e. “solid/25° C./60% RH/open/1 week”), and in a 60° C. solid storage stability test, the amorphous salt solid was sealed in an oven at 60° C. and heated for 1 week in the dark (i.e. “solid/60° C./closed container/l week”). Then the sample was taken out for purity testing, crystal form detection and appearance observation, respectively.

[2] = Solid solubility test (2 h and 24 h); conditions: for Solubility measured at 2 h: 37° C., based on free base; for XRPD measured at 2 h: state of sample / solid fraction; for XRPD measured at 24 h: 24 h test, state of sample
Description: samples were weighed for each amorphous salt solid (equivalent to 20 mg of free base), and 10 mL of the following solvents were respectively added: 0.1N HCl solution (pH 1.0), 50 mM phosphate buffer (pH 4.5), FeSSIF-V1 (pH 5.0), FaSSIF-V1 (pH 6.5) and SGF (pH 2.0), […] The suspension was then centrifuged at 37° C., the supernatant was measured for solubility by HPLC, and the solid fraction was measured for XRPD. The target solubility was at least 2 mg (based on free base)/mL.

[3] = Chemical and physical stability of the salts at the end of the preparation
From the text: It is crucial for drug development whether the salts obtained as above have chemical and physical stability at the end of the preparation. The chemical and physical stability of the salts at the end of the preparation includes: […]

[4] = Test BS1: solid/25° C./60% RH/open/1 week
[5] = listed as 1 eq. hydrochloride salt
[6] = listed as amorphous 1 eq. hydrochloride salt
[7] = solid/60° C./closed container/1 week (Test BS1)
[8] = FaSSIF-V1 (pH 6.5) (Test ES4, partly printed ES1)
[9] = Test ES1: 0.1N HCl solution (pH 1.0)
[10] = Test ES2: 50 mM phosphate buffer (pH 4.5)
[11] = listed as amorphous 1 eq. esylate salt
[12] = listed as 1 eq. hydrobromide salt
[13] = listed as crystalline 1 eq. hydrobromide salt
[14] = listed as amorphous 1 eq. mesylate salt

| Compound | Purity [1, 4] [%] | Original morphology [1] | Original purity [1] [%] | Purity [1, 7] [%] | pH measured at 2 h [2, 8] | Solubility measured at 2 h [2, 8] [µg/mL] | XRPD measured at 2 h [2, 8] | pH measured at 2 h [2, 9] | Solubility measured at 2 h [2, 9] [µg/mL] | XRPD measured at 2 h [2, 9] | pH measured at 2 h [2, 10] | Solubility measured at 2 h [2, 10] [µg/mL] | XRPD measured at 2 h [2, 10] | pH measured at 2 h ([2]; Test ES3: FeSSIF-V1 (pH 5.0)) | Solubility measured at 2 h ([2]; Test ES3: FeSSIF-V1 (pH 5.0)) [µg/mL] | XRPD measured at 2 h ([2]; Test ES3: FeSSIF-V1 (pH 5.0)) | pH measured at 2 h ([2]; Test ES5: SGF (pH 2.0)) | Solubility measured at 2 h ([2]; Test ES5: SGF (pH 2.0)) [µg/mL] | XRPD measured at 2 h ([2]; Test ES5: SGF (pH 2.0)) | further results |
| --- | --- | --- | --- | --- | --- | --- | --- | --- | --- | --- | --- | --- | --- | --- | --- | --- | --- | --- | --- | --- |
| C=CC(=O)Nc1cc(Nc2ncnc(-c3cn(C)c4ccccc34)n2)c(OC)cc1N(C)CCN(C)C [Example 2] | 99.9 | amorphous | 99.9 | 98.2 | (6.5) | >2000 | clear solution | (0.7) | >2000 | clear solution | (4.5) | >2000 | clear solution | (4.8) | >2000 | clear solution | (2.0) | >2000 | clear solution | chemical and physical stability after storage (summary) [1, 5]: chemically unstable; chemical and physical stability after storage (summary) [1, 6]: chemically unstable; physical and chemical stability under storage (in words) ([1]; solid/25° C./60% RH/open/1 week, listed as amorphous 1 eq. hydrochloride salt): good physical and chemical stability; decrease in purity ([1]; solid/60° C./closed container/1 week): about 2%; solubility at 2 h ([2]; 37 °C, thermodynamic from solid, 2 h solid solubility test, all five solvents, read-out: solubility in all solvents tested): > 2000 µg/mL; chemical and physical stability at the end of the preparation [3, 5]: chemically and physically stable; chemical and physical stability at the end of the preparation [3, 6]: chemically and physically stable |
| C=CC(=O)Nc1cc(Nc2ncnc(-c3cn(C)c4ccccc34)n2)c(OC)cc1N(C)CCN(C)C [Example 8] | 99.9 | amorphous | 99.8 | 99.8 | (6.4) | >2000 | clear solution | (0.8) | >2000 | clear solution | (4.4) | >2000 | clear solution | (4.8) | >2000 | clear solution | (1.9) | >2000 | clear solution | chemical and physical stability after storage (summary) ([1]; listed as 1 eq. esylate salt): physically unstable; chemical and physical stability after storage (summary) [1, 11]: physically unstable; physical and chemical stability under storage (in words) ([1]; solid/25° C./60% RH/open/1 week, listed as amorphous 1 eq. esylate salt): significant hygroscopicity (caking and fusion to a glassy state); physical and chemical stability under storage (in words) ([1]; solid/60° C./closed container/1 week, listed as amorphous 1 eq. esylate salt): good physical and chemical stability; chemical and physical stability at the end of the preparation ([3]; listed as 1 eq. esylate salt): chemically and physically stable; chemical and physical stability at the end of the preparation [3, 11]: chemically and physically stable |
| C=CC(=O)Nc1cc(Nc2ncnc(-c3cn(C)c4ccccc34)n2)c(OC)cc1N(C)CCN(C)C [Example 10] | 99.9 | crystalline | 99.9 | 99.9 | (6.4) | 700 (≈ 1.4 mM) |  | (0.8) | >2000 | clear solution | (4.4) | >2000 | clear solution | (4.8) | >2000 | clear solution | (1.9) | >2000 | clear solution | chemical and physical stability after storage (summary) [1, 12]: chemically and physically stable; chemical and physical stability after storage (summary) [1, 13]: chemically and physically stable; physical and chemical stability under storage (in words) ([1]; solid/25° C./60% RH/open/1 week, listed as crystalline 1 eq. hydrobromide salt): good physical and chemical stability; physical and chemical stability under storage (in words) ([1]; solid/60° C./closed container/1 week, listed as crystalline 1 eq. hydrobromide salt): good physical and chemical stability; chemical and physical stability at the end of the preparation [3, 12]: chemically and physically stable; chemical and physical stability at the end of the preparation [3, 13]: chemically and physically stable |
| C=CC(=O)Nc1cc(Nc2ncnc(-c3cn(C)c4ccccc34)n2)c(OC)cc1N(C)CCN(C)C [Example 4] | 99.8 | amorphous | 99.9 | 99.9 | (6.5) | >2000 | clear solution | (0.7) | >2000 | clear solution | (4.5) | >2000 | clear solution | (4.8) | >2000 | clear solution | (2.0) | >2000 | clear solution | chemical and physical stability after storage (summary) ([1]; listed as 1 eq. mesylate salt): chemically and physically stable; chemical and physical stability after storage (summary) [1, 14]: chemically and physically stable; physical and chemical stability under storage (in words) ([1]; solid/25° C./60% RH/open/1 week, listed as amorphous 1 eq. mesylate salt): good physical and chemical stability; physical and chemical stability under storage (in words) ([1]; solid/60° C./closed container/1 week, listed as amorphous 1 eq. mesylate salt): good physical and chemical stability; Solubility measured at 24 h ([2]; Test ES3: FeSSIF-V1 (pH 5.0)): >2000 µg/mL; pH measured at 24 h ([2]; Test ES3: FeSSIF-V1 (pH 5.0)): (5.0); XRPD measured at 24 h ([2]; Test ES3: FeSSIF-V1 (pH 5.0)): clear solution; Solubility measured at 24 h ([2]; Test ES4: FaSSIF-V1 (pH 6.5)): >2000 µg/mL; pH measured at 24 h ([2]; Test ES4: FaSSIF-V1 (pH 6.5)): (6.6); XRPD measured at 24 h ([2]; Test ES4: FaSSIF-V1 (pH 6.5)): clear solution; chemical and physical stability at the end of the preparation ([3]; listed as 1 eq. mesylate salt): chemically and physically stable; chemical and physical stability at the end of the preparation [3, 14]: chemically and physically stable |
